Blank lines part the entries; values can stand above or below the molecule they belong to.
Molecular target: T1, human GLP1R (Homo sapiens, UniProt P43220)
T1 construct: expressed in transfected cells; host or cells: CHO cells (ATCC), transient transfection with pCMV-human GLP1R
Test: Human GLP-1 receptor transfected cell assay (MRE/CRE-luciferase reporter gene, agonist activity)
Format: cell-based
Details: 6 h, read-out: Activity (agonist), percentage of the activity of the control; for activation at 3.16 µM: concentration 3.16 μM; for activation at 1 µM: concentration 1 μM; for activation at 10 µM: concentration 10 μM; for activation at 3 µM: concentration 3 μM
Experimental: The glucagon-like peptide I receptor (GLP1R) is a class B Gs-coupled membrane receptor, an agonist of which activates adenylate cyclase (AC) and elevates intracellular cAMP level. In turn, the high content of secondary messengers can activate the cAMP response element binding protein (CREB), which can translocate into nucleus to activate gene transcription.
A reporter gene based screening assay was established to measure the effect of a compound on GLP1R. In this assay, a compound was incubated with CHO cells transiently transfected with a human GLP1R plasmid and a multiple response element (MRE)/cAMP response element (CRE)-driven luciferase reporter plasmid. Once luciferase was induced by the compound, its specific substrate can be activated to produce light signal for measurement.
Materials used in this assay included: (i) cell line: Chinese hamster ovary (CHO) cells (ATCC); (ii) fetal bovine serum (FBS) (Biochrom Co.); (iii) culture medium: RPMI1640 (Invitrogen Co.) supplemented with 10% FBS; (iv) LIPOFECTAMINE™ 2000 Reagent (Invitrogen Co.); (v) plasmids: pCMV-human GLP1R and pGL3-1905 reporter plasmid; (vi) GLP1 (7-36 amide) peptide (Sigma Co.); and (vii) BRIGHT-GLO™ Luciferase Assay System (Promega Co.).
Instruments used in this assay included: (i) Form a carbon dioxide incubator (Thermo Form a Co.); and (ii) Flexstation 3 (Molecular Device Co.).
Before transfection, CHO cells were plated into a 6-well culture plate at 800,000/2 mL/well, and cultured at 37° C. in 5% CO2 overnight. On the transfection day, cells were transfected with receptor plasmid and reporter plasmid using LIPOFECTAMINE™ 2000 reagent. After 6-hour transfection, cells were digested and seeded into 96-well plates at 20,000/100 μL/well. After 14-16 hour incubation, transfected cells were washed with 100 μL serum-free RPMII 640 medium first, and then added 50 μL of the culture medium. The GLP-1 standard and test compounds were respectively diluted to a series of concentrations, which were then added into the above 96-well culture plate at 50 μL/well. The cells were incubated at 37° C. in 5% CO2 for 6 hrs. The activity of luciferase was detected using BRIGHT-GLO™ Luciferase Analytic System, and the reading was performed with a Flexstation3 plate reader machine.

T1 sequence (P43220 24-463): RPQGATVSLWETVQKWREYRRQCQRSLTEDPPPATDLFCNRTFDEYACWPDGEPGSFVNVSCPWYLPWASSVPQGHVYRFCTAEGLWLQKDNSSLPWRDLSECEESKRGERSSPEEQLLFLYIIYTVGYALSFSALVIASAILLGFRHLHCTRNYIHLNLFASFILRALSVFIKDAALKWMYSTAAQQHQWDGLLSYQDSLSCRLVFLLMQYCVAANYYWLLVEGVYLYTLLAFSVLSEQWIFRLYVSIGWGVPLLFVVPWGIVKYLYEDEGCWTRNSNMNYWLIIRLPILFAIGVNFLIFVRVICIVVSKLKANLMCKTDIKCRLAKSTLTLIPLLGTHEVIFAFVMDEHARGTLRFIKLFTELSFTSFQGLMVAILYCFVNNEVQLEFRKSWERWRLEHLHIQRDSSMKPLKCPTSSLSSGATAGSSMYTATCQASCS

- activation at 3 µM: 40 to 60%
SMILES: Cc1ccc(-c2cccc(NC(=O)NC(Cc3ccc(-c4noc(-c5ccc(NC(=O)OC(C)(C)C)cc5)n4)c(F)c3)C(=O)O)c2)cc1 (stereo not shown) [Compound 5A]

- activation at 3 µM: 40 to 60%
SMILES: Cn1nc(C(C)(C)C)cc1NC(=O)NC(Cc1ccc(-c2noc(-c3ccc(NC(=O)OC(C)(C)C)cc3)n2)c(F)c1)C(=O)O (stereo not shown) [Compound 5B]

- activation at 3 µM: > 60%
SMILES: CC(C)(C)OC(=O)Nc1ccc(-c2nc(-c3ccc(CC(NC(=O)Nc4ccc(-c5ccccc5F)cn4)C(=O)O)cc3F)no2)cc1 (stereo not shown) [Compound 5C]

- activation at 3 µM: > 60%
SMILES: CC(C)(C)OC(=O)Nc1ccc(-c2nc(-c3ccc(CC(NC(=O)N4CCC(c5ccccc5)C4)C(=O)O)cc3F)no2)cc1 (stereo not shown) [Compound 5D]

- activation at 10 µM: > 60%
SMILES: Cc1ccc(-c2ccc(C(=O)NC(Cc3ccc(C#Cc4ccc(NC(=O)OC(C)(C)C)cc4)c(F)c3)C(=O)O)o2)cc1 (stereo not shown) [Compound 5E]

- activation at 10 µM: > 60%
SMILES: Cc1ccc(-c2ccc(NC(=O)NC(Cc3ccc(-c4noc(-c5ccc(NC(=O)OC(C)(C)C)cc5)n4)c(F)c3)C(=O)O)nc2)cc1F (stereo not shown) [Compound 5F]

- activation at 10 µM: > 60%
SMILES: CC(=O)N(Cc1ccc(-c2ccc(C)cc2)o1)C(Cc1ccc(-c2noc(-c3ccc(NC(=O)OC(C)(C)C)cc3)n2)c(F)c1)C(=O)O (stereo not shown) [Compound 5G]

- activation at 5 µM (concentration 5 μM): > 60%
SMILES: Cc1ccc(N2CCN(CC(=O)NC(Cc3ccc(-c4noc(-c5ccc(NC(=O)OC(C)(C)C)cc5)n4)c(F)c3)C(=O)O)CC2)cc1 (stereo not shown) [Compound 5H]

- activation at 1 µM: > 60%
SMILES: CC(C)(C)OC(=O)Nc1ccc(-c2nc(-c3ccc(CC(NC(=O)Cc4ccc(-c5ccc(C(F)(F)F)cc5)cc4)C(=O)O)cc3F)no2)cc1 (stereo not shown) [Compound 5I]

- activation at 3.16 µM: > 60%
SMILES: Cc1ccc(-c2ccc(C(=O)NC(Cc3ccc(-c4noc(-c5ccc(NC(=O)OC(C)(C)C)cc5)n4)cc3C(F)(F)F)C(=O)O)o2)cc1 (stereo not shown) [Compound 5J]

- activation at 1 µM: > 60%
SMILES: Cc1ccc(-c2cccc(C(=O)NC(Cc3ccc(-c4noc(-c5ccc(NC(=O)OC(C)(C)C)cc5)n4)nc3)C(=O)O)c2)cc1 (stereo not shown) [Compound 5K]

- activation at 10 µM: > 60%
SMILES: Cc1ccc(-c2ccc(C(=O)NC(Cc3cc(F)c(-c4noc(-c5ccc(NC(=O)OC(C)(C)C)cc5)n4)c(F)c3)C(=O)O)o2)cc1 (stereo not shown) [Compound 5L]

- activation at 1 µM: > 60%
SMILES: Cc1ccc(-c2ccc(C(=O)NC(Cc3ccc(-c4noc(-c5ccc(NC(=O)OC(C)(C)C)cc5)n4)c(F)c3F)C(=O)O)o2)cc1F (stereo not shown) [Compound 5M]

- activation at 1 µM: > 60%
SMILES: Cc1ccc(-c2ccc(C(=O)NC(Cc3ccc(-c4ccc(-c5ccc(NC(=O)OC(C)(C)C)cc5)s4)c(F)c3)C(=O)O)o2)cc1 (stereo not shown) [Compound 5N]

- activation at 3.16 µM: > 60%
SMILES: CC(C)(C)OC(=O)Nc1ccc(-c2ccc(-c3ccc(CC(NC(=O)c4ccc(-c5ccc(F)cc5)o4)C(=O)O)cc3F)s2)cc1 (stereo not shown) [Compound 5O]

- activation at 10 µM: > 60%
SMILES: Cc1ccc(-c2ccc(C(=O)N[C@H](Cc3ccc(-c4cc(-c5ccc(NC(=O)OC(C)C)cc5)[nH]n4)c(F)c3)C(=O)O)o2)cc1 [Compound 5P]

- activation at 10 µM: > 60%
SMILES: Cc1ccc(-c2ccc(C(=O)N[C@H](Cc3ccc(-c4cn(-c5ccc(NC(=O)OC(C)C)cc5)nn4)c(F)c3)C(=O)O)o2)cc1 [Compound 5Q]

- activation at 3.16 µM: 40 to 60%
SMILES: CC(C)(C)OC(=O)Nc1ccc(/C=C/c2ccc(CC(NC(=O)c3ccc(NC(=O)OC(C)(C)C)cc3)C(=O)O)cc2F)cc1 (stereo not shown) [Compound 5R]

- activation at 10 µM: > 60%
SMILES: Cc1ccc(-c2ccc(C(=O)NC(Cc3ccc(NC(=O)c4cccc(Br)c4)c(F)c3)C(=O)O)o2)cc1 (stereo not shown) [Compound 5S]

- activation at 10 µM: > 60%
SMILES: Cc1ccc(-c2ccc(C(=O)N[C@H](Cc3ccc(/C=C/c4ccc(NC(=O)OC(C)(C)C)cc4)c(F)c3)C(=O)O)o2)cc1 [Compound 5T]

- activation at 10 µM: > 60%
SMILES: Cc1ccc(-c2cccc(C(=O)NC(Cc3ccc(-c4noc(C(=O)N5CCC(C)CC5)n4)c(F)c3)C(=O)O)c2)cc1 (stereo not shown) [Compound 5U]

- activation at 10 µM: > 60%
SMILES: COc1cc2c(cc1OC(=O)c1ccc(NC(=O)OC(C)(C)C)cc1)CN(S(=O)(=O)c1ccc(C)cc1)C(C(=O)O)C2 (stereo not shown) [Compound 5V]

- activation at 10 µM: > 60%
SMILES: COc1cc2c(cc1OC(=O)c1ccc(NC(=O)OC(C)(C)C)cc1)CN(C(=O)c1ccc(-c3ccc(C)cc3)o1)C(C(=O)O)C2 (stereo not shown) [Compound 5W]

- activation at 10 µM: > 60%
SMILES: CC(C)(C)OC(=O)Nc1ccc(C(=O)Oc2ccc3c(c2)CN(C(=O)c2ccc(NC(=O)OC(C)(C)C)cc2)C(C(=O)O)C3)cc1 (stereo not shown) [Compound 5X]

- activation at 10 µM: > 60%
SMILES: Cc1ccc(S(=O)(=O)N2Cc3cc(OC(=O)c4ccc(NC(=O)OC(C)(C)C)cc4)ccc3CC2C(=O)O)cc1F (stereo not shown) [Compound 5Y]

- activation at 10 µM: > 60%
SMILES: Cc1ccc(-c2ccc(C(=O)NC3(C(=O)O)Cc4ccc(-c5noc(-c6ccc(NC(=O)OC(C)(C)C)cc6)n5)cc4C3)o2)cc1 (stereo not shown) [Compound 5Z]

- activation at 10 µM: > 60%
SMILES: CC(C)(C)OC(=O)Nc1ccc(-c2nc(-c3ccc(C[C@@H](NC(=O)c4cccc(-c5ccc(Cl)cc5)c4)C(=O)O)cc3F)no2)cc1 [Compound 6A]

- activation at 3.16 µM: 40 to 60%
SMILES: CC(C)c1ccc(-c2ccc(C(=O)N[C@H](Cc3ccc(-c4noc(-c5ccc(NC(=O)OC(C)(C)C)cc5)n4)c(F)c3)C(=O)O)o2)cc1 [Compound 6B]

- activation at 10 µM: > 60%
SMILES: CC(C)(C)OC(=O)Nc1ccc(-c2nc(-c3ccc(C[C@@H](NC(=O)c4cccc(-c5ccc(Cl)cc5F)c4)C(=O)O)cc3F)no2)cc1 [Compound 6C]

Further lines, the molecule ahead of its results:

SMILES: COc1ccc(N2CCN(C(=O)NC(Cc3ccc(-c4noc(-c5ccc(NC(=O)OC(C)(C)C)cc5)n4)c(F)c3)C(=O)O)CC2)cc1 (stereo not shown) [Compound 4J]
- activation at 3.16 µM: 40 to 60%

SMILES: CC(C)(C)OC(=O)Nc1ccc(-c2nc(-c3ccc(CC(NC(=O)N4CCN(c5ccc(Cl)cc5)CC4)C(=O)O)cc3F)no2)cc1 (stereo not shown) [Compound 4K]
- activation at 1 µM: > 60%

SMILES: CC(C)(C)OC(=O)Nc1ccc(-c2nc(-c3ccc(CC(NC(=O)Nc4ccnc(Cl)c4)C(=O)O)cc3F)no2)cc1 (stereo not shown) [Compound 4L]
- activation at 3.16 µM: 40 to 60%

SMILES: Cc1ccc(NC(=O)NC(Cc2ccc(-c3noc(-c4ccc(NC(=O)OC(C)(C)C)cc4)n3)c(F)c2)C(=O)O)cc1 (stereo not shown) [Compound 4M]
- activation at 3.16 µM: > 60%

SMILES: CC(C)(C)OC(=O)Nc1ccc(-c2nc(-c3ccc(CC(NC(=O)Nc4ccc(Br)nc4)C(=O)O)cc3F)no2)cc1 (stereo not shown) [Compound 4N]
- activation at 3.16 µM: 20 to 40%

SMILES: Cc1ccc(-c2ccc(NC(=O)NC(Cc3ccc(-c4noc(-c5ccc(NC(=O)OC(C)(C)C)cc5)n4)c(F)c3)C(=O)O)cn2)cc1 (stereo not shown) [Compound 4O]
- activation at 10 µM: > 60%

SMILES: CC(C)(C)OC(=O)Nc1ccc(-c2nc(-c3ccc(CC(NC(=O)N4CCCN(c5ccc(C#N)cc5)CC4)C(=O)O)cc3F)no2)cc1 (stereo not shown) [Compound 4P]
- activation at 10 µM: > 60%

SMILES: CC(C)(C)OC(=O)Nc1ccc(-c2nc(-c3ccc(CC(NC(=O)N4CCCN(c5ccc(F)cn5)CC4)C(=O)O)cc3F)no2)cc1 (stereo not shown) [Compound 4Q]
- activation at 3.16 µM: > 60%

SMILES: Cc1cccnc1N1CCCN(C(=O)NC(Cc2ccc(-c3noc(-c4ccc(NC(=O)OC(C)(C)C)cc4)n3)c(F)c2)C(=O)O)CC1 (stereo not shown) [Compound 4R]
- activation at 3 µM: 20 to 40%

SMILES: CC(C)(C)OC(=O)Nc1ccc(-c2nc(-c3ccc(CC(NC(=O)Nc4cc(-c5ccc(F)cc5)on4)C(=O)O)cc3F)no2)cc1 (stereo not shown) [Compound 4S]
- activation at 1 µM: 40 to 60%

SMILES: Cc1ccc(-c2ccc(NC(=O)NC(Cc3ccc(-c4noc(-c5ccc(NC(=O)OC(C)(C)C)cc5)n4)c(F)c3)C(=O)O)nc2)cc1 (stereo not shown) [Compound 4T]
- activation at 1 µM: 40 to 60%

SMILES: CC(C)(C)OC(=O)Nc1ccc(-c2nc(-c3ccc(CC(NC(=O)Nc4ccc(C#N)cc4)C(=O)O)cc3F)no2)cc1 (stereo not shown) [Compound 4U]
- activation at 3 µM: 40 to 60%

SMILES: CC(C)(C)OC(=O)Nc1ccc(-c2nc(-c3ccc(CC(NC(=O)Nc4ccc(C(C)(C)C)cc4)C(=O)O)cc3F)no2)cc1 (stereo not shown) [Compound 4V]
- activation at 3 µM: 40 to 60%

SMILES: CC(C)c1ccc(NC(=O)NC(Cc2ccc(-c3noc(-c4ccc(NC(=O)OC(C)(C)C)cc4)n3)c(F)c2)C(=O)O)cc1 (stereo not shown) [Compound 4W]
- activation at 10 µM: 40 to 60%

SMILES: CC(C)(C)OC(=O)Nc1ccc(-c2nc(-c3ccc(CC(NC(=O)Nc4ccc(-c5ccc(F)cc5)cn4)C(=O)O)cc3F)no2)cc1 (stereo not shown) [Compound 4X]
- activation at 10 µM: > 60%

SMILES: CC(C)(C)OC(=O)Nc1ccc(-c2nc(-c3ccc(CC(NC(=O)Nc4ccc(N5CCCCC5)cc4)C(=O)O)cc3F)no2)cc1 (stereo not shown) [Compound 4Y]
- activation at 3 µM: 20 to 40%

SMILES: Cc1ccc(-c2ccc(NC(=O)NC(Cc3ccc(-c4noc(-c5ccc(NC(=O)OC(C)(C)C)cc5)n4)c(F)c3)C(=O)O)nc2)cc1Cl (stereo not shown) [Compound 4Z]
- activation at 10 µM: 40 to 60%
